According to patent US9458463B2, “Method for treatment of diabetes by a small molecule inhibitor for GRK5” (MAX-PLANCK-GESELLSCHAFT ZUR FÖRDERUNG DER WISSENSCHAFTEN …, priority 2010, dated 2016):

What was measured:
[1] = tested on: HepG2 cells; experiment: Cell viability assay (CellTiter-Glo / automated cell number) in HepG2; format: cell-based; conditions: Homo sapiens, read-out: Inhibition of cell viability IC50
Text: (§1) Luminescent cell viability assay. For the detection of cell viability, the CellTiter-Glo® Luminescent Cell Viability Assay was used. This test is based on a luciferase reaction to measure the amount of ATP in cells. This correlates directly with the number of cells and their viability because cells lose the ability to synthesize ATP directly after e.g. loss of membrane integrity or a cytotoxic event. The protocol was adapted to 24 well plates and to the different culture conditions resulting in a standardized protocol which is described below. Cell lysis, inhibition of endogenous ATPases and detection of ATP was performed by adding the CellTiter-Glo® Reagent to the culture wells. Per well, 100 μl reagent were mixed with the same volume of proper Medium. Lysing of the cells took place by 10 min incubation at RT and moderate shaking. Three times 50 μl cell lysate was transferred into a white 96 well plate to eliminate stray light, and the bioluminescence was measured.
(§2) In a 96 well dish 10000 cells per well (100 μl) were seed and treated for 72 h. At the end of the treatment, cells were fixed with 4% paraformaldehyde in PBS for 15 minutes, permeabilized with 0.1% triton-X 100 in PBS for 15 minutes and stained with Hoechst 33342 (20 μg/ml in PBS; dilute from 20 mg/ml stock) directly to cells in 100 μl medium in PBS for 30 minutes at 37° C. Stained cells were imaged with a Cellomics ArrayScan VT I automated microscope. Images were analyzed with vHCS Scan Target Activation software v5.1.2 to identify apoptotic cells. Six fields per well of a 96 well plate we re-imaged at 10× magnification. First, cells were identified by their nuclei staining in channel 1 of Cellomics and their amount. Staining intensity was plotted and compared between NT controls and compound treated cells. Finally, data was obtained using vHCS View software v 5.1.2 and the numbers of cells present in the 96 well were identified as “Valid Object Count” whereas the percentage of infection was determined as “% selected”. IC50 values have been calculated accordingly.

[2] = target: T1, full length GRK5 (Homo sapiens, UniProt P34947); experiment: GRK5 kinase activity assay, ADP Glo Kinase Assay technology (Promega); format: biochemical; conditions: group II; ADP Glo Kinase Assay (Table 9-B)
T1 construct: 6/2 fold concentrated full length GRK5 (Millipore, #14-714) in reaction buffer; purchased Millipore 14-714
T1 sequence (P34947 whole entry): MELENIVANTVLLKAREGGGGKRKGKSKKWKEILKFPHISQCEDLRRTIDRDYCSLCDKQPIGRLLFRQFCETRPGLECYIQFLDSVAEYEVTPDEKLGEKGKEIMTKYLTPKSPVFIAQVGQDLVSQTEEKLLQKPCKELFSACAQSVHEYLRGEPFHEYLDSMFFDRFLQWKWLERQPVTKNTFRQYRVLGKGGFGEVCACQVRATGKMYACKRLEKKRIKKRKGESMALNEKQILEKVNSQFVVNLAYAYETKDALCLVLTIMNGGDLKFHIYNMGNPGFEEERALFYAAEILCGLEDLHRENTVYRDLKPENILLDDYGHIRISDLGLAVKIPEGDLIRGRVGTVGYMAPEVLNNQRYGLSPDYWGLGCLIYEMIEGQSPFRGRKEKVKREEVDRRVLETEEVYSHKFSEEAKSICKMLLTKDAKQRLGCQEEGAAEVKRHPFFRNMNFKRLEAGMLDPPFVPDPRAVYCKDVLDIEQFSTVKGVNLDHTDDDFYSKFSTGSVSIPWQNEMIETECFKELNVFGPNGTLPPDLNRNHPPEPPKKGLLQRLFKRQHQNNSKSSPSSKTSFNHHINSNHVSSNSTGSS
In short: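 Casein (10 μM) phosphorylation with 100 μM ATP in 20 mM MES pH 6.0, 1 mM DTT, 10 mM MgCl2, 0.01% Tween20, 120 min at room temperature; ADP quantified by ADP-Glo luminescence.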

[3] = target: T2, GRK5 (Homo sapiens, UniProt P34947); experiment: Millipore KinaseProfiler radiometric filtration binding assay; format: biochemical; conditions: group II; Millipore KinaseProfiler (Table 10)
T2 construct: purchased Millipore (KinaseProfiler service)
T2 sequence (P34947 whole entry): as above
Experimental: (§3) As alternative, IC50 values are determined by a radiometric based filtration binding assay, namely Millipore KinaseProfiler™. GRK5 is incubated with 8 mM MOPS pH7.0, 0.2 mM EDTA, 2 mg/mL casein, 10 mM MgAcetate and […] (specific activity approx. 500 cpm/pmol, concentration as required). The reaction is initiated by the addition of the MgATP mix. After incubation for 40 minutes at room temperature, the reaction is stopped by the addition of 3% phosphoric acid solution. 10 μL of the reaction is then spotted onto a P30 filtermat and washed three times for 5 minutes in 75 mM phosphoric acid and once in methanol prior to drying and scintillation counting.
as §3, with “IC50” for “As alternative, IC50”, “pH 7.0,” for “pH7.0,”

[4] = tested on: beta TC6 cells; experiment: Cell viability assay (CellTiter-Glo / automated cell number) in beta TC6; format: cell-based; conditions: Mus musculus, read-out: Inhibition of cell viability IC50
Text: as §1, §2

[5] = tested on: 3T3-L1 cells; experiment: Cell viability assay (CellTiter-Glo / automated cell number) in 3T3-L1; format: cell-based; conditions: Mus musculus, read-out: Inhibition of cell viability IC50
Text: as §1, §2

[6] = tested on: C2C12 cells; experiment: Cell viability assay (CellTiter-Glo / automated cell number) in C2C12; format: cell-based; conditions: Mus musculus, read-out: Inhibition of cell viability IC50
Text: as §1, §2

[7] = tested on: beta-TC6 insulinoma cells; experiment: Insulin release by beta-TC6 cells, rat/mouse insulin ELISA, high glucose; format: cell-based; conditions: Mus musculus, Beta-TC6, 2 h, group II; 5 μM, 2 h, high glucose (4.5 g/L); % increase in regard to DMSO control (set at 0%)
Experimental: (§4) Release of insulin was detected using a rat/mouse insulin ELISA.
After incubation, the supernatant of the beta-TC6 insulinoma cells was diluted 1:20. The insulin release was measured with rat/mouse insulin ELISA (Merck Millipore Darmstadt, Cat. # EZRMI-13K) by following the manufacture protocol. The enzyme activity of the horseradish peroxidase of the immobilized biotinylated antibodies was monitored spectrophotometrically by the increased absorbency at 490 nm, and corrected by the absorbency at 610 nm.
as §4
The effect on the insulin release of each kinase depletion was monitored by using a rat/mouse insulin ELISA.
For the validation of the negative modulating kinases SCYL1, GRK5, and ADCK1, the target genes were depleted using four different siRNA-sequences each (FIG. 2A-D). The gene-depletion was measured via mRNA-levels after 72 hours while the insulin release was measured using a rat/mouse insulin ELISA after two hours incubation.

| IC50 [1] | IC50 [2] | IC50 [3] | SMILES | IC50 [4] | IC50 [5] | IC50 [6] | activation at 5 µM [7] |
| --- | --- | --- | --- | --- | --- | --- | --- |
| 1300 nM | 100 to 1000 nM | 100 to 1000 nM | CC[C@@H](NC(=O)c1ccc2c(c1)/C(=C/c1[nH]c(C)c(C(=O)N3CCC(N4CCN(C)CC4)CC3)c1C)C(=O)N2)c1ccccc1 [II.53, (3Z)-3-[(3,5-dimethyl-4-{[4-(4-methylpiperazin-1-yl)piperidin-1-yl]carbonyl}-1H-pyrrol-2-yl)methylene]-2-oxo-N-[(1R)-1-phenylpropyl]indoline-5-carboxamide] | 1550 nM | 1140 nM | > 10000 nM | – |
| 2070 nM | 100 to 1000 nM | 100 to 1000 nM | Cc1ccc([C@@H](C)NC(=O)c2ccc3c(c2)/C(=C/Nc2ccc(CN4CCCCC4)cc2)C(=O)N3)cc1 [II.72, (3Z)-N-[(1R)-1-(4-methylphenyl)ethyl]-2-oxo-3-({[4-(piperidin-1-ylmethyl)phenyl]amino}methylene)indoline-5-carboxamide] | 1270 nM | 1540 nM | > 10000 nM | – |
| 3250 nM | 2000 to 10000 nM | 2000 to 10000 nM | CC[C@H](NC(=O)c1ccc2c(c1)/C(=C/c1[nH]c(C)c(C(=O)N3CCC[C@H]3CN3CCCC3)c1C)C(=O)N2)c1ccccc1 [II.47, (3Z)-3-[(3,5-dimethyl-4-{[(2S)-2-(pyrrolidin-1-ylmethyl)pyrrolidin-1-yl]carbonyl}-1H-pyrrol-2-yl)methylene]-2-oxo-N-[(1S)-1-phenylpropyl]indoline-5-carboxamide] | 2210 nM | 1340 nM | > 10000 nM | – |
| – | 100 to 1000 nM | 100 to 1000 nM | CCC(NC(=O)c1ccc2c(c1)/C(=C/c1[nH]c(C)c(C(=O)N3CCN(C)CC3)c1C)C(=O)N2)c1ccc(Cl)cc1 (stereo not shown) [II.12, (3Z)-N-[1-(4-chlorophenyl)propyl]-3-({3,5-dimethyl-4-[(4-methylpiperazin-1-yl)carbonyl]-1H-pyrrol-2-yl}methylene)-2-oxoindoline-5-carboxamide] | – | – | – | 214% |
| 2840 nM | 2000 to 10000 nM | 2000 to 10000 nM | Cc1[nH]c(/C=C2\C(=O)Nc3ccc(C(=O)N[C@@H]4CCc5ccccc54)cc32)c(C)c1C(=O)N1CCC[C@@H]1CN1CCCC1 [II.30, (3Z)-N-[(1R)-2,3-dihydro-1H-inden-1-yl]-3-[(3,5-dimethyl-4-{[(2R)-2-(pyrrolidin-1-ylmethyl)pyrrolidin-1-yl]carbonyl}-1H-pyrrol-2-yl)methylene]-2-oxoindoline-5-carboxamide] | 1690 nM | 810 nM | > 10000 nM | – |
| 1810 nM | 100 to 1000 nM | 100 to 1000 nM | COc1ccc([C@@H](C)NC(=O)c2ccc3c(c2)/C(=C/Nc2ccc(CN4CCCCC4)cc2)C(=O)N3)cc1 [II.70, (3Z)-N-[(1R)-1-(4-methoxyphenyl)ethyl]-2-oxo-3-({[4-(piperidin-1-ylmethyl)phenyl]amino}methylene)indoline-5-carboxamide] | 1480 nM | 2160 nM | > 10000 nM | – |
| – | – | 100 to 1000 nM | Cc1[nH]c(/C=C2\C(=O)Nc3ccc(C(=O)N[C@H](C)c4ccccc4)cc32)c(C)c1C(=O)N1CCC[C@H]1CN1CCCC1 [II.16, (3Z)-3-[(3,5-dimethyl-4-{[(2S)-2-(pyrrolidin-1-ylmethyl)pyrrolidin-1-yl]carbonyl}-1H-pyrrol-2-yl)methylene]-2-oxo-N-[(1R)-1-phenylethyl]indoline-5-carboxamide] | – | – | – | – |
| 2530 nM | 2000 to 10000 nM | 2000 to 10000 nM | C[C@@H](c1ccccc1)N(C)C(=O)c1ccc2c(c1)/C(=C/Nc1ccc(CN3CCCCC3)cc1)C(=O)N2 [II.71, (3Z)-N-methyl-2-oxo-N-[(1S)-1-phenylethyl]-3-({[4-(piperidin-1-ylmethyl)phenyl]amino}methylene)indoline-5-carboxamide] | 2750 nM | 3100 nM | 4260 nM | – |
| 1250 nM | 100 to 1000 nM | 100 to 1000 nM | CC[C@@H](NC(=O)c1ccc2c(c1)/C(=C/c1[nH]c(C)c(C(=O)N3CCCCC3)c1C)C(=O)N2)c1ccccc1 [II.63, (3Z)-3-{[3,5-dimethyl-4-(piperidin-1-ylcarbonyl)-1H-pyrrol-2-yl]methylene)-2-oxo-N-[(1R)-1-phenylpropyl]indoline-5-carboxamide] | 1260 nM | 940 nM | 1720 nM | – |
| 1430 nM | 100 to 1000 nM | 100 to 1000 nM | CC[C@@H](NC(=O)c1ccc2c(c1)/C(=C/c1[nH]c(C)c(C(=O)N3CCC[C@@H]3CN3CCCC3)c1C)C(=O)N2)c1ccccc1 [II.48, (3Z)-3-[(3,5-dimethyl-4-{[(2R)-2-(pyrrolidin-1-ylmethyl)pyrrolidin-1-yl]carbonyl}-1H-pyrrol-2-yl)methylene]-2-oxo-N-[(1R)-1-phenylpropyl]indoline-5-carboxamide] | 1080 nM | 600 nM | > 10000 nM | – |
| 790 nM | 100 to 1000 nM | 100 to 1000 nM | Cc1[nH]c(/C=C2\C(=O)Nc3ccc(C(=O)N[C@H](C)c4cccc(Cl)c4)cc32)c(C)c1C(=O)N1CCCCC1 [II.55, (3Z)-N-[(1R)-1-(3-chlorophenyl)ethyl]-3-{[3,5-dimethyl-4-(piperidin-1-ylcarbonyl)-1H-pyrrol-2-yl]methylene}-2-oxoindoline-5-carboxamide] | 1100 nM | 860 nM | 1410 nM | – |
| 1490 nM | 100 to 1000 nM | – | CC[C@@H](NC(=O)c1ccc2c(c1)/C(=C/c1[nH]c(C)c(CCC(=O)NCCN(CC)CC)c1C)C(=O)N2)c1ccccc1 [II.131, (3Z)-3-{4-[2-(2-diethylamino-ethylcarbamoyl)-ethyl]-3,5-dimethyl-1H-pyrrol-2-ylmethylene}-2-oxo-2,3-dihydro-1H-indole-5-carboxylic acid (1-phenyl-propyl)-amide] | 3470 nM | > 10000 nM | > 10000 nM | 134% |
| 780 nM | < 100 nM | < 100 nM | CC[C@@H](NC(=O)c1ccc2c(c1)/C(=C/c1[nH]c(C)c(C(=O)N3CCC[C@H]3CN3CCCC3)c1C)C(=O)N2)c1ccccc1 [II.46, (3Z)-3-[(3,5-dimethyl-4-{[(2S)-2-(pyrrolidin-1-ylmethyl)pyrrolidin-1-yl]carbonyl}-1H-pyrrol-2-yl)methylene]-2-oxo-N-[(1R)-1-phenylpropyl]indoline-5-carboxamide] | 220 nM | 320 nM | 8860 nM | – |
